Assay results as given in ChEMBL document CHEMBL1148548, “New 7,8-ethylenedioxy-2,3-benzodiazepines as noncompetitive AMPA receptor antagonists” (Bioorg Med Chem Lett, 2006).

Columns and labels:
[1] = system: Mus musculus; assay: Effect on tonic phase of audiogenic seizures in DBA/2 mice at 3.3-200 umol/kg, ip; assay type: functional; conditions: DBA/2, ip
[2] = biological target: T1, Glutamate receptor ionotropic, AMPA (Rattus norvegicus, UniProt P19490+P19491+P19492+P19493); assay: Ability to inhibit kainate-induced increase of calcium in rat cerebellar granule cells expressing AMPA receptor; assay type: functional
[3] = system: Mus musculus; assay: Effect on clonic phase of audiogenic seizures in DBA/2 mice at 3.3-200 umol/kg, ip; assay type: functional; conditions: DBA/2, ip
[4] = system: Mus musculus; assay: Protective index [PI = TD50/ED50 (from clonic phase of the audiogenic seizures)] in mice at 3.3-200 umol/kg, ip; assay type: functional
[5] = system: Mus musculus; assay: Effect on locomotion in mice assessed by rotarod test at 3.3-200 umol/kg, ip; assay type: functional
[6] = biological target: T1, Glutamate receptor ionotropic, AMPA; assay: Displacement of [3H]CP-526427 from AMPA receptor in rat forebrain membranes; assay type: cell membranes, Membrane
[7] = biological target: Glutamate receptor ionotropic, kainate 1 (Rattus norvegicus, UniProt P22756); assay: Ability to inhibit domoic acid-induced increase of calcium in rat HEK293 cells expressing GluR5; assay type: functional, cell-based
Glutamate receptor ionotropic, kainate 1, sequence (P22756 whole entry): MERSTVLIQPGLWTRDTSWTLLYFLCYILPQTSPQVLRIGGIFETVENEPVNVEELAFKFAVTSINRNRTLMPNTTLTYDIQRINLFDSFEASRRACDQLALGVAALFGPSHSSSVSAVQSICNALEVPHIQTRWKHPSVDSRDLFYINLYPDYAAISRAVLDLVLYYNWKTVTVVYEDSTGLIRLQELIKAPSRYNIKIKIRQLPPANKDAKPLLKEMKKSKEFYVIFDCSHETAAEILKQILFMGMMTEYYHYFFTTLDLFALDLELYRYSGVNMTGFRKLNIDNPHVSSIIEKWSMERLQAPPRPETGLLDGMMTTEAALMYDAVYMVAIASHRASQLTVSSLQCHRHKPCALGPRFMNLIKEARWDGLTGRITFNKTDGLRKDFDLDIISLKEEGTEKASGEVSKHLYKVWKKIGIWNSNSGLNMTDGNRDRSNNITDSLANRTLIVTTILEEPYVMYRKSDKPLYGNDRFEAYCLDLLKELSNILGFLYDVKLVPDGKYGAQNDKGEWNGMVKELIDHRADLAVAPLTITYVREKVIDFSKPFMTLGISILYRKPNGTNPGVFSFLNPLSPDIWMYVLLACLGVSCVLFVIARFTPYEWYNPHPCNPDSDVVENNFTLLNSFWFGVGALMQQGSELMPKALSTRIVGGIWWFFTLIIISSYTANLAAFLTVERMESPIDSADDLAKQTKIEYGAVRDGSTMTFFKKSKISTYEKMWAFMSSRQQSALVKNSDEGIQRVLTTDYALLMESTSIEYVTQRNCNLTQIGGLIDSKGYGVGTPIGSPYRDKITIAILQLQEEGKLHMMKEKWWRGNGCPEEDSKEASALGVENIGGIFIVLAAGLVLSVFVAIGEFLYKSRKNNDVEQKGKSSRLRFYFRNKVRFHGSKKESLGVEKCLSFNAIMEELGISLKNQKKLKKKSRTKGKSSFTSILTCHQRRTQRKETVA

| Structure (SMILES) | ED50 [1] | IC50 [2] | ED50 [3] | Ratio TD50/ED50 [4] | TD50 [5] | IC50 [6] | IC50 [7] |
| --- | --- | --- | --- | --- | --- | --- | --- |
| CNC(=O)N1N=C(c2ccc(N)cc2)c2cc3c(cc2CC1=O)OCCO3 | 32.1 µmol/kg | 5.4 µM | 45.5 µmol/kg | 2.1 | 96.4 µmol/kg | – | – |
| Cc1cc(C2=NNC(=O)Cc3cc4c(cc32)OCCO4)ccc1N | 24.6 µmol/kg | – | 48.2 µmol/kg | 2.4 | 115 µmol/kg | 1.8 µM | – |
| Nc1ccc(C2=NNC(=O)Cc3cc4c(cc32)OCCO4)c(Cl)c1 | > 100 µmol/kg | – | > 100 µmol/kg | – | – | > 20 µM | – |
| Nc1ccc(C2=NNC(=O)Cc3cc4c(cc32)OCO4)cc1 | – | 12 µM | – | 4.5 | – | – | – |
| CCNC(=O)N1N=C(c2ccc(N)cc2)c2cc3c(cc2CC1=O)OCO3 | – | 11 µM | – | 3.8 | – | 12 µM | – |
| Nc1ccc(C2=NNC(=O)Cc3cc4c(cc32)OCCO4)cc1Cl | 27.2 µmol/kg | – | 70.8 µmol/kg | 1.4 | 99.1 µmol/kg | 2 µM | – |
| Nc1ccc(C2=NNC(=O)Cc3cc4c(cc32)OCCO4)cc1 | 44.8 µmol/kg | 2.9 µM | 61.3 µmol/kg | 1.7 | 102 µmol/kg | – | > 10 µM |
| CCNC(=O)N1N=C(c2ccc(N)cc2)c2cc3c(cc2CC1=O)OCCO3 | 41.7 µmol/kg | – | 48.1 µmol/kg | 2 | 95.3 µmol/kg | 9.3 µM | – |
| CNC(=O)N1N=C(c2ccc(N)cc2)c2cc3c(cc2CC1=O)OCO3 | – | – | – | 3.9 | – | – | – |
| CC1=NN=C(c2ccc(N)cc2)c2cc3c(cc2C1)OCO3 [GYKI-52466] | – | – | – | 2.1 | – | – | – |
